Results reported in patent US20150018427A1, “COMPOUNDS FOR TREATING PARVOVIRUS INFECTION” (ARATANA THERAPEUTICS NV, priority 2012, published 2015).
Structures can show the parent of a compound that is named as a salt.

Assays:
[1] = tested on: feline panleukopenia virus (FPV); experiment: FPV DNA reduction by quantitative PCR, CrFK cells; format: cell-based; settings: read-out: EC50-value (μM) for FPV, DNA reduction
Experimental: (§1) Amantadine, amantadine hydrochloride (HCl) and memantine were dissolved in Dulbecco's phosphate buffered saline (DPBS) at a concentration of 10 mM. Crandell Reese Feline Kidney (CrFK) cells were grown in Dulbecco minimum essential medium (DMEM, Life Technologies) containing 1% sodium bicarbonate (Life Technologies), 1% L-Glutamine (Life Technologies) and 5% fetal calf serum (FCS, Biochrom). In a 24 well plate 100,000 CrFK cells were seeded on day 0. On day 1, the medium was removed and 10 TCID50 of FPV or 10 TCID50 CPV-2c was added and incubated for 2 h at 37° C. in humidified conditions. After incubation, medium was removed and CrFK cells were washed with DPBS. Subsequently, a serial dilution of compound in culture medium was added (250, 50, and 10 μM). Infected cells without any added compound were used as positive controls (virus control) and uninfected cells were used as negative controls (cell control). The cells were incubated at 37° C. in humidified conditions. After 4 days of incubation medium containing newly produced virus particles was collected and viral titers were determined using CrFK cells. In addition, 200 μL of supernatant was extracted to obtain FPV or CPV-2c DNA using the QIAamp DNA extraction kit (Qiagen). The extracted FPV DNA was detected by a real time PCR using the Taqman Fast Universal mastermix (Life Technologies) and the standard Fast cycling protocol using the StepOnePlus real time device (Applied Biosystems). In the PCR mixture an optimized 900 nM of each forward and reverse primer was used and 250 nM FAM-BHQ1 labeled probe as published by Decaro et al. (J. Virol. Methods 2008, 147, 67-71). EC50 values were determined as the concentration of compound that inhibited 50% of the viral DNA.
2-methyladamantan-2-amine HCl and 2-ethyladamantan-2-amine HCl were dissolved in Dulbecco's phosphate buffered saline (DPBS) at a concentration of 10 mM. The inhibition experiments and the preparation thereof were performed as described above for Example 2.

[2] = tested on: canine parvovirus 2c (CPV-2c); experiment: CPV-2c titer reduction, titration of produced virus on CrFK cells; format: cell-based
[3] = tested on: canine parvovirus type 2 (CPV2); experiment: Treatment of dog naturally infected with canine parvovirus type 2; format: in vivo; settings: beagle puppy, CPV2 PCR-positive, 10 mg/kg twice daily for 2 weeks
[4] = tested on: feline panleukopenia virus (FPV); experiment: FPV titer reduction, titration of produced virus on CrFK cells; format: cell-based
Experimental: as §1
Reduction of CPV-2c and FPV titers under increasing concentrations of amantadine hydrochloride (HCl) and memantine are shown in Table 3a and 3b, respectively. Viral titers are determined by titration of the produced virus on CrFK cells and incubated for 5 days. The obtained titers where compared with the control (virus production without addition of compound).

[5] = tested on: canine parvovirus 2c (CPV-2c); experiment: CPE visual scoring assay, CPV-2c in CrFK cells; format: cell-based
[6] = tested on: feline panleukopenia virus (FPV); experiment: CPE visual scoring assay, FPV in CrFK cells; format: cell-based
Experimental: Crandell Reese Feline Kidney (CrFK) cells were grown in Dulbecco minimum essential medium (DMEM, Life Technologies) containing 1% sodium bicarbonate (Life Technologies), 1% L-Glutamine (Life Technologies) and 5% fetal calf serum (FCS, Biochrom). In a 96 well plate a serial dilution of compound was added together with 10 TCID50 of feline panleukopenia virus (FPV) or 10 TCID50 canine parvovirus 2c (CPV-2c) and 20,000 CrFK cells. Infected cells without any added compound were used as positive controls (virus control) and uninfected cells were used as negative controls (cell control). The cells were incubated for 4 days and viral cytopathogenic effect (CPE) was scored visually. EC50-values were determined as the concentration of compound that inhibited 50% of the viral replication as compared with virus control.
2-methyladamantan-2-amine HCl and 2-ethyladamantan-2-amine HCl were dissolved in Dulbecco's phosphate buffered saline (DPBS) at a concentration of 10 mM. The inhibition experiments and the preparation thereof were performed as described above for Example 2. […]

[7] = tested on: canine parvovirus 2c (CPV-2c); experiment: CPV-2c DNA reduction by quantitative PCR, CrFK cells; format: cell-based
[8] = Canine parvovirus, 96 h, Table 1, CPE visual scoring, CrFK cells, 10 TCID50, 4 days, read-out: EC50-value (μM) for CPV-2c
[9] = 96 h, Table 2, viral DNA in supernatant by quantitative PCR, CrFK cells, 4 days, read-out: EC50-value (μM) for CPV-2c, DNA reduction
[10] = Feline panleukopenia virus, CRFK, 96 h, Table 2, viral DNA in supernatant by quantitative PCR, CrFK cells, 4 days
[11] = Feline panleukopenia virus, CRFK, 96 h, Table 1, CPE visual scoring, CrFK cells, 10 TCID50, 4 days, read-out: EC50-value (μM) for FPV
[12] = Canine parvovirus, CRFK, 96 h, read-out: EC50-value (μM) for CPV-2c, Table 1, CPE visual scoring, CrFK cells, 10 TCID50, 4 days
[13] = Feline panleukopenia virus, CRFK, Table 4b, quantitative PCR
[14] = Canine parvovirus, CRFK, Table 4a, CPE visual scoring assay, read-out: EC50-value (μM) for CPV-2c
[15] = Feline panleukopenia virus, CRFK, read-out: EC50-value (μM) for FPV, Table 4a, CPE visual scoring assay
[16] = CRFK, Table 4b, quantitative PCR, read-out: EC50-value (μM) for CPV-2c, DNA reduction

| SMILES | Titer reduction of CPV-2c, log10 reduction compared with control ([2]; 10 μM compound) [log10] | Titer reduction of CPV-2c, log10 reduction compared with control ([2]; 50 μM compound) [log10] | Titer reduction of CPV-2c, log10 reduction compared with control ([2]; 250 μM compound) [log10] | Titer reduction of FPV, log10 reduction compared with control ([4]; 10 μM compound) [log10] | Titer reduction of FPV, log10 reduction compared with control ([4]; 50 μM compound) [log10] | Titer reduction of FPV, log10 reduction compared with control ([4]; 250 μM compound) [log10] | EC50 [5, 8] [µM] | EC50 [6, 11] [µM] | other results |
| --- | --- | --- | --- | --- | --- | --- | --- | --- | --- |
| Cl.NC12CC3CC(CC(C3)C1)C2 [Amantadine HCl, 1-Aminoadamantane hydrochloride] | 0.50 | 2.71 | 2.71 | 0 | 1.50 | 2.44 | 14 | – | EC50 ([1]; Table 2, viral DNA in supernatant by quantitative PCR, CrFK cells, 4 days, hydrochloride): 30.1 µM; Clinical signs of parvovirus infection [3]: improved from day 3 onwards; Recovery after 2 weeks of treatment [3]: recovered completely; EC50 ([6]; Table 1, CPE visual scoring, CrFK cells, 10 TCID50, 4 days, hydrochloride, read-out: EC50-value (μM) for FPV): 33.3 µM; EC50 [7, 9]: 6.59 µM |
| CC12CC3CC(C)(C1)CC(N)(C3)C2 [Memantine, memantine] | 0 | 0.50 | 1.55 | 0 | 0.71 | 1.41 | 23.9 | 23.3 | EC50 [1, 10]: 42.6 µM; EC50 [7, 9]: 17.9 µM |
| NC12CC3CC(CC(C3)C1)C2 [Amantadine, amantadine] | 0 | 2.23 | 2.23 | 0 | 0.48 | 1.43 | – | 18.7 | EC50 [1, 10]: 57.1 µM; EC50 [5, 12]: 22.6 µM; EC50 ([7]; CRFK, 96 h, read-out: EC50-value (μM) for CPV-2c, DNA reduction, Table 2, viral DNA in supernatant by quantitative PCR, CrFK cells, 4 days): 53.5 µM |
| CC1(N)C2CC3CC(C2)CC1C3 (centres unmarked) [2-methyladamantan-2-amine] | – | – | – | – | – | – | – | – | EC50 [1, 13]: < 0.781 µM; EC50 [5, 14]: 2.25 µM; EC50 [6, 15]: 1.95 µM; EC50 [7, 16]: 1.14 µM |
| NCC12CC3CC(CC(C3)C1)C2 [1-adamantanemethylamine] | – | – | – | – | – | – | > 250 | > 250 | – |
| NC12CC3CC(C1)CC(O)(C3)C2 [3-amino-1-amantadol] | – | – | – | – | – | – | – | – | EC50 ([5]; Table 1, CPE visual scoring, CrFK cells, 10 TCID50, 4 days, read-out: EC50-value (μM) for CPV-2c): > 250 µM; EC50 ([6]; Table 1, CPE visual scoring, CrFK cells, 10 TCID50, 4 days, read-out: EC50-value (μM) for FPV): > 250 µM |
| CCC1(N)C2CC3CC(C2)CC1C3 (centres unmarked) [2-ethyladamantan-2-amine] | – | – | – | – | – | – | – | – | EC50 [1, 13]: 1.31 µM; EC50 [5, 14]: 4.2 µM; EC50 [6, 15]: 2.42 µM; EC50 [7, 16]: 2.44 µM |
| NC1C2CC3CC(C2)CC1C3 (centres unmarked) [2-adamantylamine HCl, 2-adamantylamine hydrochloride] | – | – | – | – | – | – | 5.12 | 17.3 | – |
| CC(N)C12CC3CC(CC(C3)C1)C2 (centres unmarked) [Rimantadine, rimantadine] | – | – | – | – | – | – | – | > 250 | EC50 [5, 12]: > 250 µM |
| CNC12CC3CC(CC(C3)C1)C2 [N-methyl-1-adamantylamine] | – | – | – | – | – | – | > 250 | > 250 | – |
